In patent publication US20130287688A1, “NOVEL COMPOSITIONS AND USES OF ANTI-HYPERTENSION AGENTS FOR CANCER THERAPY” (XTUIT PHARMACEUTICALS, INC., priority 2010, published 2013):

Tests used:
HSTS26T tumors [1] = test: Protein levels in homogenized tumors (ELISA); assay type: in vivo, mice
Text: Tumors were excised after two weeks of treatment, homogenized and analyzed for total and activated TGF-β1 levels by ELISA.

Pan-02 pancreatic tumors = test: Solid stress (tumor opening technique); parameters: species or system C57BL/6 mouse; details: mouse, in vivo
Text: FIG. 25 is a bar graph showing that angiotensin inhibitors decrease stress in multiple tumor models. Solid stress levels in tumors after angiotensin inhibition using losartan are shown. […] Animal numbers n=10-11 (4T1 stress), n=4-8 (Pan-02 stress).
The mechanism responsible for the increase in tumor vessel perfusion by losartan was investigated. Desmoplasia, high stromal cell and matrix density, is a major contributor to the solid stress accumulation that compresses vessels (Stylianopoulos T, et al., Growth-induced mechanical stress in murine and human tumors: causes, consequences and remedies. under review. 2012). […] Moreover, losartan decreased collagen I concentration, measured based on staining intensity, in E0771 and AK4.4 tumors (FIGS. 24B-24C). […] Next, solid stress in these tumors was measured using recently established technique described in Stylianopoulos T, et al., Growth-induced mechanical stress in murine and human tumors: causes, consequences and remedies. under review. […]
Solid stress: Solid stress was measured using the tumor opening technique as described previously (Stylianopoulos T, et al., Growth-induced mechanical stress in murine and human tumors: causes, consequences and remedies. under review. 2012). […] Subsequently, each tumor was excised, washed with Hanks' Balanced Salt Solution (HBSS) and its three dimensions were measured. […]

HSTS26T tumors [2] = test: Intratumoral spread of i.t. injected oncolytic HSV (GFP); assay type: in vivo, mice; details: 24 hrs after i.t. injection of HSV expressing GFP
Text: (§1) Based on the previous studies on the tumor interstitial matrix (Pluen A, et al. (2001) Proc Natl Acad Sci USA 98:4628-4633 and Brown E, et al. (2003) Nat Med 9:796-800), the inventors then sought to determine if a decrease in collagen content by Losartan can improve the intratumoral distribution of nanoparticles. The inventors therefore measured the intratumoral distribution of fluorescent polystyrene nanoparticles (100 nm diameter) in three different tumor types—HSTS26T, Mu89, and L3.6 pl—after an i.t. or i.v. injection. In mice injected i.t. with nanoparticles, losartan improved nanoparticle accumulation and penetration in the tumor center (FIG. 8A; HSTS26T p<0.001, Mu89 p<0.001). Conversely, there was little or no nanoparticle accumulation in the center of control tumors. Most of the injected nanoparticles in control tumors were found in the tumor margin and around the needle insertion point (FIG. 8A). The inventors also determined the effects of losartan on the intratumoral distribution of oncolytic HSV.
(§2) Nanoparticles and oncolytic HSV were infused with a syringe pump (Harvard Apparatus Standard Pump 22, Holliston, Mass.) at a flow rate of 4 μl/min. The inventors injected 10 μl of HSV (2.5×10^5 t.u.) expressing the green fluorescent protein (GFP), or 10 μl of fluorescent nanoparticles (diameter of […]; concentration of 1×10^13 nanoparticles/ml). […]

Mu89 tumors = test: as above; assay type: in vivo, mice; details: 24 hrs after i.t. injection of HSV expressing GFP
Text: as §1, §2

[3] = tested on: carcinoma associated fibroblasts (CAFs); details: losartan 10 μmol/L, 24 hrs
Description: Protein assays were done with commercial ELISA kits.
CAFs were plated in 24 well plates at a concentration of 500K cells/well. […] Treatment was done in low serum to reduce background collagen levels. Conditioned medium was collected at the end of the 24-hr treatment period and analyzed for collagen levels.
Collagen I measurements were done with a type I C-terminal collagen propetide Enzyme Linked Immunosorbent Assay (ELISA) kit (Quidel, San Diego, Calif.) and the Sircol soluble collagen assay (Biocolor Ltd., United Kingdom). TGF-β1 assays were performed with a human TGF-β1 ELISA kit (R&D Systems, Minneapolis, Minn.). The assay only measures the free-form of mature TGF-β1. To measure total levels of TGF-β1 the latent form of TGF-β1 was activated with 1N HCl.

HSTS26T tumors [4] = test: Second harmonic generation (SHG) imaging of fibrillar collagen in dorsal skin fold chamber tumors; assay type: in vivo, SCID mice; details: for decrease in SHG levels (collagen): end of 15 days
Description: Cozaar (losartan potassium) tablets were ground using a mortar and pestle. The powder was then dissolved in water to obtain a concentration of 2.5 mg/ml. The solution was then filtered and stored in a sterile container.
Second Harmonic Imaging (SHG) imaging was performed in dorsal chamber tumors with a custom-built multiphoton laser-scanning microscope (Brown E, et al. (2003) Nat Med 9:796-800). Polarized light from a Ti:Sapphire laser (Mai-Tai Broadband: Spectra-Physics, Mountain View, Calif.) was converted to circularly polarized light using a zero order quarter wave plate (Newport Corporation, Irvine, Calif.). An excitation wavelength of 810 nm and detected SHG signals at 405 nm was used. SCID mice bearing HSTS26T tumors in dorsal chambers were either treated with losartan (10, 20 or 60 mg/kg/day) or saline for the duration of the dose response experiment (15 days). Vascular markers were used to locate 4 regions of interest in each mouse and periodically returned to the same region of SHG imaging. SHG images were analyzed with a custom-built Matlab (The MathWorks, Inc., Natick, Mass.) code. The fraction of the region of interest (ROI) that was positive for the SHG signal was normalized to the amount of SHG signal obtained on day 1 of the dose response study (before initiation of losartan or saline treatment).

[5] = 15 mg/kg/day in drinking water, two weeks

Structure (SMILES): CCCCc1nc(Cl)c(CO)n1Cc1ccc(-c2ccccc2-c2nn[nH]n2)cc1 [losartan]
- reduction in TSP-1 (HSTS26T tumors [1]; [5]): 3.5 fold
- reduction in active TGF-β1 (HSTS26T tumors [1]; [5]): 4 fold
- reduction in collagen 1 (HSTS26T tumors [1]; [5]): two fold reduction
- total TGF-β1 levels (HSTS26T tumors [1]; homogenized tumors): did not affect
- solid stress (Pan-02 pancreatic tumors): reduces solid stress
- virus spread (HSTS26T tumors [2]): significantly increased
- virus spread (Mu89 tumors): significantly increased
- decrease in collagen I levels [3]: 27%
- reduction of active-TGF-β1 levels [3]: 90%
- total TGF-β1 levels [3]: unaffected
- intratumoral SHG signal intensity (HSTS26T tumors [4]; 10 mg/kg/day i.p.): did not have a significant effect
- decrease in SHG levels (collagen) (HSTS26T tumors [4]; 10 mg/kg/day i.p.): 20%
- intratumoral SHG signal intensity (HSTS26T tumors [4]; 20 mg/kg/day i.p.): significantly reduced
- decrease in SHG levels (collagen) (HSTS26T tumors [4]; 20 mg/kg/day i.p.): 33%
- intratumoral SHG signal intensity (HSTS26T tumors [4]; 60 mg/kg/day i.p.): significantly reduced
- decrease in SHG levels (collagen) (HSTS26T tumors [4]; 60 mg/kg/day i.p.): 67%
